From ChEMBL document CHEMBL1201862, “PubChem BioAssay data set” (2004)
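The compound was tested at five concentrations on cells cultured in 96-well plates, with a 48-hour exposure period. At the GI50, growth is halved.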 The source made the active and inactive calls. No stated cut-off is given here; in the data, active = GI50 up to about 1.1 µM and inactive = higher.

Legend:
Test in all cases: DTP human tumour cell line panel, 48 h
RXF 393 = system: RXF 393
SF-268 = system: SF-268
SR = system: SR
A498 = system: A498
ACHN = system: ACHN
HOP-62 = system: HOP-62
NCI-H522 = system: NCI-H522
HL-60 = system: HL-60
CCRF-CEM = system: CCRF-CEM
NCI-H23 = system: NCI-H23
SF-539 = system: SF-539
LOX IMVI = system: LOX IMVI
COLO 205 = system: COLO 205
SNB-75 = system: SNB-75
U-251 = system: U-251
NCI/ADR-RES = system: NCI/ADR-RES
MDA-MB-435 = system: MDA-MB-435
PC-3 = system: PC-3
DU-145 = system: DU-145
MDA-MB-231 = system: MDA-MB-231

Measured: GI50

O=C1CCCCC1S(=O)(=O)c1ccccc1 (centres undefined)
inactive: RXF 393 > 100 µM | SF-268 > 100 µM | SR > 100 µM | A498 > 100 µM | ACHN > 100 µM | HOP-62 > 100 µM | NCI-H522 > 100 µM | HL-60 > 100 µM | CCRF-CEM > 100 µM | NCI-H23 > 100 µM | SF-539 > 100 µM | LOX IMVI > 100 µM | COLO 205 > 100 µM | SNB-75 > 100 µM | U-251 > 100 µM

COc1ccc(NC(=S)NN=C(C)c2cccc(C(C)=NNC(=S)Nc3ccc(OC)cc3)n2)cc1
inactive: RXF 393 > 100 µM | SF-268 > 100 µM | NCI/ADR-RES 8.59 µM | SR 3.13 µM | MDA-MB-435 85.5 µM | A498 > 100 µM | ACHN 4.74 µM | HOP-62 26.1 µM | NCI-H522 33.8 µM | HL-60 20.5 µM | CCRF-CEM 3.33 µM | NCI-H23 64 µM | SF-539 16.4 µM | LOX IMVI 13.6 µM | PC-3 27.2 µM | COLO 205 4.45 µM | SNB-75 3.9 µM | U-251 24.5 µM | DU-145 > 100 µM

O=C1[C@H]2ON(c3ccccc3)C(c3ccc(Cl)cc3Cl)[C@H]2C(=O)N1c1ccc(Cc2ccc(N3C(=O)[C@@H]4ON(c5ccccc5)C(c5ccc(Cl)cc5Cl)[C@@H]4C3=O)cc2)cc1 (some centres undefined)
inactive: SF-268 > 100 µM | SR 44.1 µM | A498 > 100 µM | ACHN > 100 µM | HOP-62 > 100 µM | NCI-H522 > 100 µM | HL-60 > 100 µM | CCRF-CEM > 100 µM | NCI-H23 > 100 µM | SF-539 > 100 µM | LOX IMVI > 100 µM | COLO 205 > 100 µM | SNB-75 > 100 µM | U-251 > 100 µM

CCOC(=O)C1(C(=O)OCC)C=C(c2ccccc2)N(C2OC(COC(C)=O)C(OC(C)=O)C(OC(C)=O)C2OC(C)=O)C1=S (centres undefined)
inactive: RXF 393 > 100 µM | SF-268 > 100 µM | NCI/ADR-RES 64.1 µM | MDA-MB-231 > 100 µM | SR > 100 µM | MDA-MB-435 54 µM | A498 85.1 µM | HOP-62 > 100 µM | NCI-H522 73.1 µM | HL-60 22.9 µM | CCRF-CEM 33.9 µM | NCI-H23 > 100 µM | SF-539 > 100 µM | LOX IMVI > 100 µM | COLO 205 > 100 µM | U-251 > 100 µM | DU-145 > 100 µM

COC(=O)C(C(=O)C(=O)Nc1ccc(OC)cc1[N+](=O)[O-])c1nc2cc(C)c(C)cc2nc1O (centres undefined)
inactive: RXF 393 > 100 µM | SF-268 > 100 µM | SR > 100 µM | A498 > 100 µM | ACHN > 100 µM | HOP-62 > 100 µM | NCI-H522 > 100 µM | HL-60 > 100 µM | CCRF-CEM > 100 µM | NCI-H23 > 100 µM | SF-539 > 100 µM | LOX IMVI > 100 µM | COLO 205 > 100 µM | SNB-75 > 100 µM | U-251 > 100 µM

CC(=O)COC(=O)CC(C)=O
inactive: RXF 393 > 100 µM | SF-268 > 100 µM | SR > 100 µM | ACHN > 100 µM | HOP-62 > 100 µM | NCI-H522 > 100 µM | HL-60 > 100 µM | CCRF-CEM > 100 µM | NCI-H23 > 100 µM | SF-539 > 100 µM | LOX IMVI > 100 µM | COLO 205 > 100 µM | SNB-75 > 100 µM | U-251 > 100 µM

CC(C)OP(=O)(OC(C)C)C(C(F)(F)F)C(F)(F)F
inactive: RXF 393 > 100 µM | SF-268 > 100 µM | NCI/ADR-RES > 100 µM | SR > 100 µM | MDA-MB-435 > 100 µM | ACHN > 100 µM | HOP-62 > 100 µM | NCI-H522 > 100 µM | HL-60 > 100 µM | CCRF-CEM > 100 µM | NCI-H23 > 100 µM | SF-539 > 100 µM | LOX IMVI > 100 µM | PC-3 > 100 µM | COLO 205 > 100 µM | SNB-75 > 100 µM | U-251 > 100 µM | DU-145 > 100 µM

O=c1[nH]ncc2[nH]c3c(c12)CCCc1ccccc1-3
inactive: RXF 393 15.1 µM | SF-268 23.6 µM | NCI/ADR-RES 37.9 µM | MDA-MB-435 25.7 µM | A498 27.6 µM | ACHN 32.8 µM | HOP-62 67 µM | NCI-H522 48.9 µM | HL-60 21.8 µM | CCRF-CEM 39.9 µM | NCI-H23 40.6 µM | SF-539 30.1 µM | LOX IMVI 44.3 µM | PC-3 64.1 µM | COLO 205 20.5 µM | U-251 38.6 µM | DU-145 54.5 µM

CSc1n[n+]2c(s1)SCCC2
inactive: RXF 393 > 100 µM | SF-268 80.2 µM | SR > 100 µM | ACHN > 100 µM | HOP-62 95.5 µM | NCI-H522 26.9 µM | HL-60 > 100 µM | CCRF-CEM > 100 µM | NCI-H23 > 100 µM | SF-539 > 100 µM | LOX IMVI > 100 µM | COLO 205 20.2 µM | SNB-75 42.8 µM | U-251 > 100 µM

NS(=O)(=O)c1ccc(Nc2c3ccccc3nc3c(C(=O)N4CCN(CCO)CC4)cccc23)cc1
inactive: RXF 393 > 100 µM | SF-268 > 100 µM | SR 74.1 µM | A498 > 100 µM | ACHN > 100 µM | HOP-62 > 100 µM | NCI-H522 80.9 µM | HL-60 29.2 µM | CCRF-CEM 95.3 µM | NCI-H23 > 100 µM | SF-539 > 100 µM | LOX IMVI 92.7 µM | COLO 205 > 100 µM | SNB-75 52.7 µM | U-251 > 100 µM

C/C(=N\N=C(N)N)c1sc(-c2nc(C)c(/C(C)=N/N=C(N)N)s2)nc1C
inactive: RXF 393 > 45.4 µM | SF-268 > 100 µM | SR > 45.6 µM | A498 > 100 µM | ACHN > 100 µM | HOP-62 > 100 µM | NCI-H522 36 µM | HL-60 24.4 µM | CCRF-CEM > 60.7 µM | NCI-H23 > 100 µM | SF-539 > 100 µM | LOX IMVI > 42.5 µM | COLO 205 > 52.5 µM | SNB-75 > 84.3 µM | U-251 > 95.3 µM

Cc1cc2oc(=O)[nH]c(=S)c2c(C)c1C
inactive: RXF 393 > 100 µM | SF-268 > 100 µM | SR > 100 µM | A498 > 100 µM | ACHN > 100 µM | HOP-62 > 100 µM | NCI-H522 > 100 µM | HL-60 > 100 µM | CCRF-CEM > 100 µM | NCI-H23 > 100 µM | SF-539 > 100 µM | LOX IMVI > 100 µM | COLO 205 > 100 µM | SNB-75 > 100 µM | U-251 > 100 µM

COc1cc2c(cc1OC)[C@H]1C(COC(=O)Nc3ccccc3)CN1CC2 (some centres undefined)
inactive: RXF 393 58.5 µM | SF-268 > 100 µM | SR 75.3 µM | A498 70.6 µM | ACHN > 100 µM | HOP-62 > 100 µM | NCI-H522 > 100 µM | HL-60 > 100 µM | CCRF-CEM > 100 µM | NCI-H23 > 100 µM | SF-539 > 100 µM | LOX IMVI 57.9 µM | COLO 205 > 100 µM | SNB-75 18.6 µM | U-251 > 100 µM

CCCCCCCCCCCCCCCCCC(=O)O[C@H](COC(=O)CCCCCCCCCCC)COC(=O)CCCCCCCCCCCCCCC
inactive: SF-268 > 100 µM | SR > 100 µM | A498 > 100 µM | ACHN > 100 µM | HOP-62 > 100 µM | HL-60 > 100 µM | CCRF-CEM > 100 µM | NCI-H23 > 100 µM | LOX IMVI > 100 µM | COLO 205 > 100 µM | U-251 > 100 µM

CCCCCCCCCCCCCCCCOCC(CN(C)CCN(C)C)OCCCCCCCCCCCCCCCC (centres undefined)
inactive: RXF 393 > 100 µM | SF-268 > 100 µM | SR > 100 µM | A498 > 100 µM | ACHN > 100 µM | HOP-62 > 100 µM | NCI-H522 > 100 µM | HL-60 > 100 µM | CCRF-CEM > 100 µM | NCI-H23 > 100 µM | LOX IMVI > 100 µM | COLO 205 > 100 µM | SNB-75 > 100 µM | U-251 > 100 µM

COc1cc(CC2c3cc(OC)c(OC)cc3CCN2C)ccc1O (centres undefined)
inactive: SF-268 > 100 µM | A498 > 100 µM | ACHN > 100 µM | HOP-62 > 100 µM | NCI-H522 > 100 µM | CCRF-CEM > 100 µM | NCI-H23 > 100 µM | SF-539 > 100 µM | SNB-75 > 100 µM | U-251 > 100 µM

C=C(C)C1Cc2c(cc(OC)c3c(=O)c4ccccc4n(C)c23)O1 (centres undefined)
inactive: RXF 393 > 100 µM | SF-268 > 100 µM | SR > 100 µM | A498 > 100 µM | ACHN 58.3 µM | HOP-62 > 100 µM | NCI-H522 18.3 µM | HL-60 > 100 µM | CCRF-CEM > 100 µM | NCI-H23 > 100 µM | SF-539 > 100 µM | LOX IMVI 47.3 µM | COLO 205 > 100 µM | SNB-75 70 µM | U-251 > 100 µM

CC(=O)Nc1nnc(S(C)(=O)=O)s1
inactive: RXF 393 > 100 µM | SF-268 > 100 µM | NCI/ADR-RES > 100 µM | SR > 100 µM | MDA-MB-435 > 100 µM | A498 > 100 µM | ACHN > 100 µM | HOP-62 > 100 µM | HL-60 > 100 µM | CCRF-CEM > 100 µM | NCI-H23 > 100 µM | SF-539 > 100 µM | PC-3 > 100 µM | COLO 205 > 100 µM | U-251 > 100 µM | DU-145 > 100 µM
